Bounds are passed on as bounds.

Holding throughout (details): pH 7.35
Experiment [1] has as its target Bifunctional protein GlmU (Staphylococcus aureus (strain COL), UniProt Q5HIH6). Nature of the experiment: Inhibition Assay. The source says: (§1) Inhibition assay using GlmU bifuncation enzyme with various bacterial strains.
Experiment [2] concerns the target Bifunctional protein GlmU (Streptococcus pneumoniae (strain ATCC BAA-255 / R6), UniProt Q8DQ18). Put plainly: Inhibition Assay.
Description: as §1

Experiment [3] deals with Bifunctional protein GlmU (Haemophilus influenzae (strain ATCC 51907 / DSM 11121 / KW20 / Rd), UniProt P43889). Nature of the experiment: Inhibition Assay.
Description: as §1

The target of experiment [4] is Bifunctional protein GlmU (Escherichia coli (strain K12), UniProt P0ACC7). Nature of the experiment: Inhibition Assay.
Description: as §1

Experiment [5] concerns the target Bifunctional protein GlmU (Escherichia coli) (UniProt P0ACC7). Put plainly: Inhibition assay using GlmU bifuncation enzyme with various bacterial strains.

Sequence of Bifunctional protein GlmU (Escherichia coli (strain K12), UniProt P0ACC7) (P0ACC7 whole entry): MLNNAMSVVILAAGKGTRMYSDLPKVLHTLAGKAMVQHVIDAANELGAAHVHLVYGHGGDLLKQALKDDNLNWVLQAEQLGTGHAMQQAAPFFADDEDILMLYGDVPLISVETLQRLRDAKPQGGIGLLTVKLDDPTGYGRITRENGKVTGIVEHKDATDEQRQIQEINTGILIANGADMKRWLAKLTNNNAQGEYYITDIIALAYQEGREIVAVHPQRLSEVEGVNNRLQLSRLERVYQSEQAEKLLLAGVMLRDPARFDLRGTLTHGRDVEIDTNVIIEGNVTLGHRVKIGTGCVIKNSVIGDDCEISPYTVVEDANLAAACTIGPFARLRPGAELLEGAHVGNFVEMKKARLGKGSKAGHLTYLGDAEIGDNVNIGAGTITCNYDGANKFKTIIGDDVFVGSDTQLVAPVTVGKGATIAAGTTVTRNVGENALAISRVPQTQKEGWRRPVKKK
Sequence of Bifunctional protein GlmU (Haemophilus influenzae (strain ATCC 51907 / DSM 11121 / KW20 / Rd), UniProt P43889) (P43889 whole entry): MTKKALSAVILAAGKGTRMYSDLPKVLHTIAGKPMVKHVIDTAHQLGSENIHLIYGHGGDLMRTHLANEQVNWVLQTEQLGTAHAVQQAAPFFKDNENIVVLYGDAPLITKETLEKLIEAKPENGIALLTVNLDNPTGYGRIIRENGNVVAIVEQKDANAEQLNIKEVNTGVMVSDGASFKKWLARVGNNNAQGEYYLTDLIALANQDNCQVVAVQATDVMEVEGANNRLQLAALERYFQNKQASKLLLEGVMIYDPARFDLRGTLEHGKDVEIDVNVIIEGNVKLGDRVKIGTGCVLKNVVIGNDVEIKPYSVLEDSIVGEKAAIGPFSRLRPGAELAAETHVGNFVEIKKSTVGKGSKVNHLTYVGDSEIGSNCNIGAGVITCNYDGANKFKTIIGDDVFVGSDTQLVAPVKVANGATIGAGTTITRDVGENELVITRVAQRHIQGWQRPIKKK
Sequence of Bifunctional protein GlmU (Staphylococcus aureus (strain COL), UniProt Q5HIH6) (Q5HIH6 whole entry): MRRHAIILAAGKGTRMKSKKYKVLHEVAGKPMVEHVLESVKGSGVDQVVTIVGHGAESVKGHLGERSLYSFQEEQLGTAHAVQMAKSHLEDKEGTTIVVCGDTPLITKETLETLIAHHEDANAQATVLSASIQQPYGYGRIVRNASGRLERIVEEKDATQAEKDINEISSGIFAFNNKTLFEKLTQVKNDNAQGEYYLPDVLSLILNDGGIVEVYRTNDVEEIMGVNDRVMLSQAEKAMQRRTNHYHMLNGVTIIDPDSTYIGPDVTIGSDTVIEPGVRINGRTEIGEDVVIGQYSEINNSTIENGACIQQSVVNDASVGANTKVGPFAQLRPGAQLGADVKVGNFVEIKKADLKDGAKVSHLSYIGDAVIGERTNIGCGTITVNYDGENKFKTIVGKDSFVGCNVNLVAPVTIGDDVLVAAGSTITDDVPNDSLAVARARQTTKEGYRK
Sequence of Bifunctional protein GlmU (Streptococcus pneumoniae (strain ATCC BAA-255 / R6), UniProt Q8DQ18) (Q8DQ18 whole entry): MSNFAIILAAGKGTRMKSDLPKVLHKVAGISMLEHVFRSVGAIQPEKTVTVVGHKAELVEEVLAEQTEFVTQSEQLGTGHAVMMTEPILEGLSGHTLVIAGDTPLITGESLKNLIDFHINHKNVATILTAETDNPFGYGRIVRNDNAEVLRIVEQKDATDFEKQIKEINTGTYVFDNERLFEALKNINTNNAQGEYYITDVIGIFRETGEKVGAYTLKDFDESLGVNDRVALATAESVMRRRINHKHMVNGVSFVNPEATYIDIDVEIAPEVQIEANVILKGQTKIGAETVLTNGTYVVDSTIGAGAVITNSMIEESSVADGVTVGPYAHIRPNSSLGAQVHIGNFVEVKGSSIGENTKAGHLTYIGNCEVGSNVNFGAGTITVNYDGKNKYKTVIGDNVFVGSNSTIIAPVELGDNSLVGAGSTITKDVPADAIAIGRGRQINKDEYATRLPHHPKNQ
Sequence of Bifunctional protein GlmU (Escherichia coli) (P0ACC7 whole entry, looked up): as the sequence (P0ACC7 whole entry) above

As to `COc1cc(OC)c(S(=O)(=O)N2c3ccccc3CC2C)cc1NC(C)=O` (stereo not drawn), the IC50 (usually the point on the concentration scale where inhibition reaches its midpoint) was above 200 µM in experiment [1], above 200 µM in experiment [2], 7.8 µM in experiment [3] and 2.1 µM in experiment [4].

For `COc1cc(OC)c(S(=O)(=O)N(C)c2ccccc2)cc1NC(C)=O`, the values for the IC50 in experiment [2] and in experiment [3] were above 200 µM and 6.4 µM, respectively. In addition, the affinity in experiment [5], expressed as Kd, was 1.9 µM.

As to `COc1cc(OC)c(S(=O)(=O)N(c2ccccc2)c2ccc(N)cc2)cc1NC(=O)CCC(=O)O` [Sulfonamide, 3], the values for the IC50 in experiment [1], in experiment [2] and in experiment [3] were above 200 µM, 40 µM and 0.4 µM, respectively.

For `COc1cc(O)c(S(=O)(=O)N2c3ccccc3CCC2C)cc1NC(=O)CCC(=O)O` (stereo not drawn) [Sulfonamide, 4], the IC50 was above 200 µM in experiment [1], 4.7 µM in experiment [2], 0.28 µM in experiment [3] and 0.058 µM in experiment [4].

Consider `COc1cc(OC)c(S(=O)(=O)N2c3ccccc3Oc3ccccc32)cc1NC(=O)CCC(=O)O` [Sulfonamide, 5], for which the concentration for half-maximal inhibition (IC50) in experiment [1] was above 200 µM; in experiment [2] it was 15 µM; in experiment [3], 0.023 µM; in experiment [4], 0.007 µM.

The values above are taken from BindingDB's records for doi:10.1074/jbc.M111.274068 (Astrazeneca, 2011).
